Measured values from PMC3690439 (Nuclear medicine and biology, 2012).
Read-outs that look alike come from different tables or passages of the source. Values belong to the molecule of their own block, whether it stands above or below them.

What was measured:
P-glycoprotein (Pgp) = P-glycoprotein (Pgp) (Homo sapiens, UniProt P08183); assay: Rhodamine 123 efflux inhibition assay in CCRFvcr1000 cells; format: cell-based
EMT6Ar1.0 tumors = conditions: murine tumor model; cited from earlier work
[1] = target: P-glycoprotein (Pgp) at the blood-brain barrier (Mus musculus, UniProt P21447); conditions: FVB wild-type mice; cited from earlier work
[2] = system: P-glycoprotein (Pgp) at the blood-brain barrier; conditions: Mdr1a/b(-/-) mice; cited from earlier work

Chain of P-glycoprotein (Pgp) (P08183 whole entry): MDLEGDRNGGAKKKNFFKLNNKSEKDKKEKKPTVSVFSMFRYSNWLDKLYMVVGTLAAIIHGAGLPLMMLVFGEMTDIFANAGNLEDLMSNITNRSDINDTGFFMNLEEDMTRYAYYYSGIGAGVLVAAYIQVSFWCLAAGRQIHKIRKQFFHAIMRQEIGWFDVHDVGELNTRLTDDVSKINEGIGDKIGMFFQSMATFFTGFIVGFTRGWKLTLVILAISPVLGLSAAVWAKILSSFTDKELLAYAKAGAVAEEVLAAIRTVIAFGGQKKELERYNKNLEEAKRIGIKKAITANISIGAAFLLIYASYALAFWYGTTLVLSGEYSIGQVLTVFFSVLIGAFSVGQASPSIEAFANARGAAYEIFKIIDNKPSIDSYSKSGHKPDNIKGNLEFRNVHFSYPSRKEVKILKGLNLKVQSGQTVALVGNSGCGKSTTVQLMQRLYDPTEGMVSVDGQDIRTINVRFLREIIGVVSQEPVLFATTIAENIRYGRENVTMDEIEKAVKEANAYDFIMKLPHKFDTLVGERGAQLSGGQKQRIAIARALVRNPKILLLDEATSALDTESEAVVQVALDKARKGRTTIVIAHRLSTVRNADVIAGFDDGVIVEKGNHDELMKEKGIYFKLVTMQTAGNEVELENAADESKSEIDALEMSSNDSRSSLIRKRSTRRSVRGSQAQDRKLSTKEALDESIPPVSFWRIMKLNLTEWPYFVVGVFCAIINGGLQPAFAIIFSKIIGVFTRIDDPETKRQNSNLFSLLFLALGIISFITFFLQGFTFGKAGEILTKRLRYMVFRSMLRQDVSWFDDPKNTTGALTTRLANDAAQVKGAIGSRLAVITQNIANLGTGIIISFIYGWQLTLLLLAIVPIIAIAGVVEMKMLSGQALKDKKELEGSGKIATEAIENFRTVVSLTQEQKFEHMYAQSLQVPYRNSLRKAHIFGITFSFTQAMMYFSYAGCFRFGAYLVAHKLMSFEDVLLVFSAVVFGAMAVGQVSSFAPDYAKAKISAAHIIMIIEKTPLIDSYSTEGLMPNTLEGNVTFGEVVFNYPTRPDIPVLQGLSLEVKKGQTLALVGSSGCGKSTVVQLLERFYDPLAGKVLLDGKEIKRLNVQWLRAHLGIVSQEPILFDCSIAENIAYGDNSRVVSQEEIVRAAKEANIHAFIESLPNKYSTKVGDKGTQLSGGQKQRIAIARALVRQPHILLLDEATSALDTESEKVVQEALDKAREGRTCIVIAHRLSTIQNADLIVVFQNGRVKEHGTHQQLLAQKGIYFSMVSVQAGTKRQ
Chain of P-glycoprotein (Pgp) at the blood-brain barrier (Mus musculus, UniProt P21447) (P21447 whole entry): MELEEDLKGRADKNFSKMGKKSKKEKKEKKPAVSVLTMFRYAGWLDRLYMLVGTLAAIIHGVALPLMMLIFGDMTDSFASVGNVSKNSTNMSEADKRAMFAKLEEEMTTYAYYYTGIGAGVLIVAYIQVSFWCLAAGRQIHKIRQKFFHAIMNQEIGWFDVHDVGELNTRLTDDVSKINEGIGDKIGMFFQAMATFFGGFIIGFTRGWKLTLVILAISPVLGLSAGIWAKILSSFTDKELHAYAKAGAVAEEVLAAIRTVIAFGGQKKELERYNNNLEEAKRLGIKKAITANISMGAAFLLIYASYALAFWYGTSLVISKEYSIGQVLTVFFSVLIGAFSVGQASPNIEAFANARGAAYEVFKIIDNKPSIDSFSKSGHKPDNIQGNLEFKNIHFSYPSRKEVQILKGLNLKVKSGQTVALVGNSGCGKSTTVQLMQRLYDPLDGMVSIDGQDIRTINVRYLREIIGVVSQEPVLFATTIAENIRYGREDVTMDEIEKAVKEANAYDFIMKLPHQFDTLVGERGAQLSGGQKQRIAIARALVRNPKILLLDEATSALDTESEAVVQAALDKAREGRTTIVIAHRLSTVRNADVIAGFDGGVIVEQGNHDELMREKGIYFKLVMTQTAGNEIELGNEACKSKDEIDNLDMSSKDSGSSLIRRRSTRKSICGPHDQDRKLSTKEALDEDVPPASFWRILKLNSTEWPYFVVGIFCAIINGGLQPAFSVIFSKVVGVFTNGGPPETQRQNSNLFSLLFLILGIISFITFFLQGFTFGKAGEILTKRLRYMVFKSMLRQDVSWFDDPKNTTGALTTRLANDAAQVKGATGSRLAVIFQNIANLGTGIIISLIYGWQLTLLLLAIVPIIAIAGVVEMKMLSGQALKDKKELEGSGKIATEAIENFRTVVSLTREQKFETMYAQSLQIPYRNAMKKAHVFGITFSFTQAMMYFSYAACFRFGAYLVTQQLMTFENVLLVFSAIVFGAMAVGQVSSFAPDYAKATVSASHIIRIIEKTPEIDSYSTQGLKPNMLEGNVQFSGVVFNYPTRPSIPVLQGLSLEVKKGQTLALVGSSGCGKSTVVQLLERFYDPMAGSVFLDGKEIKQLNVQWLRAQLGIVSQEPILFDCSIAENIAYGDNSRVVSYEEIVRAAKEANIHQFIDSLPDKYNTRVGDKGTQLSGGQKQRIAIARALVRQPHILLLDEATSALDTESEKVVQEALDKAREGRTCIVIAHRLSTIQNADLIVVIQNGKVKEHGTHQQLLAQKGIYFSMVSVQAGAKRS

IC50 (P-glycoprotein (Pgp); read-out: IC50 for inhibition of Pgp-mediated rhodamine 123 efflux, CCRFvcr1000 cells, mean±SD, at least 3 independent experiments in duplicate): 0.375 ± 0.06 µM
SMILES: COc1ccc(-c2ccc(CN3CCc4cc(OC)c(OC)cc4C3)cc2)cc1 [MC113]

SMILES: COc1cc2c(cc1OC)CN(CCc1ccc(NC(=O)c3cc(OC)c(OC)cc3NC(=O)c3cnc4ccccc4c3)cc1)CC2 [[^11C]tariquidar]
higher AUC0-60 in EMT6Ar1.0 than in EMT6 tumors (EMT6Ar1.0 tumors): approximately 60% | mean brain AUC0-60 [1]: 9 ± 1 min | mean brain AUC0-60 [2]: 17 ± 2 min

IC50 (P-glycoprotein (Pgp)): 0.0085 ± 0.0025 µM
SMILES: COc1cc2c(cc1OC)CN(CCc1ccc(NC(=O)c3cc(OC)c(OC)cc3NC(=O)c3cnc4ccccc4c3)cc1)CC2 [tariquidar]
